US8314071B2, “Bioactive molecules from co-cultivation of microbes” (Massachusetts Institute of Technology, priority 2007, dated 2012)

Columns and labels:
Streptomyces padanus = assay: paper disk diffusion, Streptomyces padanus; format: cell-based; conditions: paper disk (6 mm in diameter) containing 30 μg on agar plate
Description: (§1) No evidence of activity against eukaryotes, such as S. cerevisiae or cytotoxicity against human leukemia (HL-60) was observed.
(§2) Antimicrobial activity was measured by the conventional paper disk diffusion method. See Bauer, A. W.; Kirby, W. M.; Sherris, J. C.; Turck, M. Am. J. Clin. Pathol. 1966, 45, 493-96; and Hachem, C. Y.; Clarridge, J. E.; Reddy, R.; Flamm, R.; Evans, D. G.; Tanaka, S. K.; Graham, D. Y. Diagn. Microbiol. Infect. Dis. 1996, 24, 37-41. The bioactive fractions during the purification procedures were confirmed by activity against Streptomyces padanus, while pure rhodostreptomycins were tested for activity against S. padanus, Escherichia coli, Staphylococcus aureus, Bacillus subtilis, Helicobacter pylori and Saccharomyces cerevisiae. In this method, each paper disk (Whatman AA Discs, 6 mm) containing the extract or 30 μg of the pure compounds was placed directly onto an agar plate that had been freshly inoculated with a lawn of the test organism. The activity was estimated by measuring the diameters of the inhibition zones.

Saccharomyces cerevisiae = assay: paper disk diffusion, Saccharomyces cerevisiae; format: cell-based; conditions: paper disk (6 mm in diameter) containing 30 μg on agar plate
Description: as §1, §2

Helicobacter pylori = assay: paper disk diffusion, Helicobacter pylori; format: cell-based; conditions: paper disk (6 mm in diameter) containing 30 μg on agar plate
Description: as §1, §2

Staphylococcus aureus = assay: paper disk diffusion, Staphylococcus aureus; format: cell-based; conditions: paper disk (6 mm in diameter) containing 30 μg on agar plate
Description: as §1, §2

Bacillus subtilis = assay: paper disk diffusion, Bacillus subtilis; format: cell-based; conditions: paper disk (6 mm in diameter) containing 30 μg on agar plate
Description: as §1, §2

Escherichia coli = assay: paper disk diffusion, Escherichia coli; format: cell-based; conditions: paper disk (6 mm in diameter) containing 30 μg on agar plate
Description: as §1, §2

solubility in solvents = format: physicochemical
[1] = tested on: Gram-negative and Gram-positive bacteria; assay: conventional disk assays on microbial lawns, overall; format: cell-based; conditions: rhodostreptomycin B (2) compared with rhodostreptomycin A (1)
Description: as §1, §2

CN[C@@H]1[C@H](O[C@H]2[C@H](O[C@H]3[C@H](O)[C@@H](O)[C@H](N=C(N)N)[C@@H](O)[C@@H]3N=C(N)N)O[C@H](C)[C@@]23OC(=O)N[C@H]3O)O[C@@H](CO)[C@H](O)[C@H]1O [Rhodostreptomycin 1, Rhodostreptomycin A]
diameter of inhibition zone (Streptomyces padanus): 15 mm | diameter of inhibition zone (Saccharomyces cerevisiae): 0 mm | diameter of inhibition zone (Helicobacter pylori): 10 mm | diameter of inhibition zone (Staphylococcus aureus): 9 mm | diameter of inhibition zone (Bacillus subtilis): 8 mm | diameter of inhibition zone (Escherichia coli): 8 mm | solubility in chloroform or n-hexane (solubility in solvents): not in chloroform or n-hexane | solubility in water (solubility in solvents): highly soluble in water

CN[C@@H]1[C@H](O[C@H]2[C@H](O[C@H]3[C@H](O)[C@@H](O)[C@H](N=C(N)N)[C@@H](O)[C@@H]3N=C(N)N)O[C@H](C)[C@@]23OC(=O)N[C@@H]3O)O[C@@H](CO)[C@H](O)[C@H]1O [Rhodostreptomycin 2, Rhodostreptomycin B]
diameter of inhibition zone (Streptomyces padanus): 18 mm | activity relative to the other isomer [1]: more potent | diameter of inhibition zone (Saccharomyces cerevisiae): 0 mm | diameter of inhibition zone (Helicobacter pylori): 18 mm | diameter of inhibition zone (Staphylococcus aureus): 14 mm | diameter of inhibition zone (Bacillus subtilis): 14 mm | diameter of inhibition zone (Escherichia coli): 12 mm | solubility in chloroform or n-hexane (solubility in solvents): not in chloroform or n-hexane | solubility in water (solubility in solvents): highly soluble in water
